Experimental findings from patent publication US20260347353A1, “INDOLIZINE DERIVATIVES FOR TREATING CANCER” (Antares Therapeutics, Inc., priority 2022, published 2026) are described below.

A word on the Kd: it is the constant that tells how readily two partners part at equilibrium. A high value points to lower affinity. The term IC50 denotes the concentration at which inhibition is half-maximal. By AC50 is commonly meant the concentration at which the activity in the assay is half-maximal.

In experiment [1] the target is T1, p53 Y220C mutant protein (amino acid residues 94-293) (Homo sapiens, UniProt P04637, Y220C).
T1 construct: p53 Y220C mutant protein (amino acid residues 94-293)
The experiment in a line: Surface Plasmon Resonance (SPR) assay, p53 Y220C Kd_kinetic. As to conditions: multi-cycle kinetics, 16 or 20 °C, pH 7.5, 1:1 binding model. Put shortly:
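Kd from multi-cycle SPR kinetics fitted to a 1:1 model, using 2-fold, 7-point compound series over p53 Y220C (residues 94-293). Flow 30 μL/min, 60 s association, 120 s dissociation, at 16 or 20 °C in 50 mM Tris pH 7.5, 100 mM NaCl, 1 mM DTT, 0.01% Brij35, 0.05% Tween-20, 1% DMSO.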

For the next experiment, the system named is NUGC3 cells (p53 Y220C). The experiment in a line: Cell Proliferation Assay (CellTiter-Glo), NUGC3 p53 Y220C. The experiment is classed as cell-based. As to conditions: Homo sapiens, NUGC-3, 120 h, 5 days, read-out: CTG NUGC3 P53 Y220C IC50. Put shortly:
(§1)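 Seeded at 250–500 cells/well, then compound-treated for 5 days; the NCIH1299 lines carry Tet-One inducible p53 Y220C or R273H transduced lentivirally. Viability by CellTiter-Glo luminescence after 10 min at room temperature; IC50 calculated.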
For orientation: In ATP-based viability assays light output follows the ATP content of the culture.

Experiment [2] has as its system NCIH1299-inducible p53 Y220C cells. The experiment in a line: Cell Proliferation Assay (CellTiter-Glo), NCIH1299-inducible p53 Y220C. The format is cell-based. As to conditions: Homo sapiens, NCI-H1299, 120 h, 5 days, read-out: CTG H1299 P53 Y220C IC50. A digest of the protocol:
as §1

The next experiment addresses p53 Y220C (Homo sapiens, UniProt P04637, Y220C). The experiment in a line: Luciferase Reporter Assay, p53 Y220C (NCIH1299 cells with inducible p53 Y220C and p53 response element-luciferase). The experiment is classed as cell-based. As to conditions: 6 hour compound treatment, read-out: Luc P53 Y220C AC50. Put shortly:
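NCI-H1299 cells stably carrying a p53 response element-luciferase reporter and Tet-inducible p53 Y220C were induced with 0.5 ug/mL doxycycline for 24 h, then treated with compound for 6 h. Luminescence was read after One-Glo addition. AC50 was derived relative to 10 uM tool compound as positive control.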
For orientation: A reporter such as luciferase makes a cellular process visible.

Molecules are shown by their SMILES.

T1 sequence (P04637 94-293, stated change not applied): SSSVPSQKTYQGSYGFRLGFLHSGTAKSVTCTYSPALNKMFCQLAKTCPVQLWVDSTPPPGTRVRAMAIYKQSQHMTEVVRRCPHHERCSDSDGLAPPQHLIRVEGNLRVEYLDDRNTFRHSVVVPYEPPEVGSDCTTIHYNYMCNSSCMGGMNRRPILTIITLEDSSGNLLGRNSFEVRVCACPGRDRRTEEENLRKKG

For the compound `CN1CC[C@@H](Nc2cccn3c(SC(F)(F)F)c(-c4noc(CNC(=O)c5ccc(S(C)(=O)=O)cc5)n4)cc23)[C@@H](F)C1` [Example 42, N-{[3-(8-{[(3S,4R)-3-fluoro-1-methylpiperidin-4-yl]amino}-3-[(trifluoromethyl)sulfanyl]indolizin-2-yl)-1,2,4-oxadiazol-5-yl]methyl}-4-methanesulfonylbenzamide], the Kd in experiment [1] was less than 10 nM. Besides, the IC50 (in the experiment on NUGC3 cells (p53 Y220C); in experiment [2]) was less than 750 nM throughout. Also, the half-maximal activity concentration (AC50) at p53 Y220C is less than 750 nM.

As for `CN1CC[C@@H](Nc2cccn3c(SC(F)(F)F)c(-c4noc(CNC(=O)COc5ccc(C#N)cc5)n4)cc23)[C@@H](F)C1` [Example 43, 2-(4-cyanophenoxy)-N-{[3-(8-{[(3S,4R)-3-fluoro-1-methylpiperidin-4-yl]amino}-3-[(trifluoromethyl)sulfanyl]indolizin-2-yl)-1,2,4-oxadiazol-5-yl]methyl}acetamide], the Kd in experiment [1] was 10 to 100 nM. Also, the IC50 (with NUGC3 cells (p53 Y220C); in experiment [2]) was 750 to 1500 nM in each case. In addition, the AC50 on p53 Y220C is 750 to 1500 nM.

As to `CN1CC[C@@H](Nc2cccn3c(SC(F)(F)F)c(-c4noc(CNC(=O)C#CC5(NC(=O)OC(C)(C)C)CC5)n4)cc23)[C@@H](F)C1` [Example 44, tert-butyl N-{1-[2-({[3-(8-{[(3S,4R)-3-fluoro-1-methylpiperidin-4-yl]amino}-3-[(trifluoromethyl)sulfanyl]indolizin-2-yl)-1,2,4-oxadiazol-5-yl]methyl}carbamoyl)eth-1-yn-1-yl]cyclopropyl}carbamate], in experiment [1], the dissociation constant (Kd) is less than 10 nM. For the same compound, the half-maximal inhibitory concentration (IC50) in the experiment on NUGC3 cells (p53 Y220C) was 750 to 1500 nM; in experiment [2] it was less than 750 nM. In addition, the AC50 at p53 Y220C was less than 750 nM.

In turn, `CN1CC[C@@H](Nc2cccn3c(SC(F)(F)F)c(-c4noc(CNC(=O)C56CC(NC(=O)OC(C)(C)C)(C5)C6)n4)cc23)[C@@H](F)C1` [Example 45, tert-butyl N-[3-({[3-(8-{[(3S,4R)-3-fluoro-1-methylpiperidin-4-yl]amino}-3-[(trifluoromethyl)sulfanyl]indolizin-2-yl)-1,2,4-oxadiazol-5-yl]methyl}carbamoyl)bicyclo[1.1.1]pentan-1-yl]carbamate] gave a Kd in experiment [1] of 10 to 100 nM. Further, the 50% inhibitory concentration (IC50) with NUGC3 cells (p53 Y220C) was 1500 to 3000 nM; in experiment [2], not below 3000 nM. Moreover, the AC50 at p53 Y220C is not below 3000 nM.

`CN1CC[C@@H](Nc2cccn3c(SC(F)(F)F)c(-c4noc(CNC(=O)C5(c6ccc(F)cc6)CC5)n4)cc23)[C@@H](F)C1` [Example 46, N-{[3-(8-{[(3S,4R)-3-fluoro-1-methylpiperidin-4-yl]amino}-3-[(trifluoromethyl)sulfanyl]indolizin-2-yl)-1,2,4-oxadiazol-5-yl]methyl}-1-(4-fluorophenyl)cyclopropane-1-carboxamide] gave a Kd in experiment [1] of 100 to 1000 nM. Moreover, the IC50 (with NUGC3 cells (p53 Y220C); in experiment [2]) was not below 3000 nM each time. Moreover, the AC50 at p53 Y220C was not below 3000 nM.

For the compound `CN1CC[C@@H](Nc2cccn3c(SC(F)(F)F)c(-c4noc(CNC(=O)C5(C(F)(F)F)CC5)n4)cc23)[C@@H](F)C1` [Example 47, N-{[3-(8-{[(3S,4R)-3-fluoro-1-methylpiperidin-4-yl]amino}-3-[(trifluoromethyl)sulfanyl]indolizin-2-yl)-1,2,4-oxadiazol-5-yl]methyl}-1-(trifluoromethyl)cyclopropane-1-carboxamide], in experiment [1], the Kd was in the range of 10 to 100 nM. The IC50 (in the experiment on NUGC3 cells (p53 Y220C); in experiment [2]) was not below 3000 nM in each case. Besides, the AC50 at p53 Y220C is not below 3000 nM.

In the case of `CN1CC[C@@H](Nc2cccn3c(SC(F)(F)F)c(-c4noc(CNC(=O)C(C)(C)O)n4)cc23)[C@@H](F)C1` [Example 49, N-{[3-(8-{[(3S,4R)-3-fluoro-1-methylpiperidin-4-yl]amino}-3-[(trifluoromethyl)sulfanyl]indolizin-2-yl)-1,2,4-oxadiazol-5-yl]methyl}-2-hydroxy-2-methylpropanamide], the Kd in experiment [1] was in the range of 10 to 100 nM. The IC50 with NUGC3 cells (p53 Y220C) is not below 3000 nM; in experiment [2], 1500 to 3000 nM. Besides, the AC50 on p53 Y220C fell in the range of 1500 to 3000 nM.

Compound `C[C@H](NC(=O)C1CC1)c1nc(-c2cc3c(N[C@@H]4CCN(C)C[C@@H]4F)cccn3c2SC(F)(F)F)no1` [Example 52, N-[(1S)-1-[3-(8-{[(3S,4R)-3-fluoro-1-methylpiperidin-4-yl]amino}-3-[(trifluoromethyl)sulfanyl]indolizin-2-yl)-1,2,4-oxadiazol-5-yl]ethyl]cyclopropanecarboxamide] yielded a Kd in experiment [1] of 10 to 100 nM. Further, the IC50 (in the experiment on NUGC3 cells (p53 Y220C); in experiment [2]) was not below 3000 nM each time. For the same compound, the AC50 on p53 Y220C was not below 3000 nM.

In the case of `CNC(=O)c1ccc(NCc2nc(-c3cc4c(N[C@@H]5CCN(C)C[C@@H]5F)cccn4c3SC(F)(F)F)no2)nc1` [Example 54, 6-({[3-(8-{[(3S,4R)-3-fluoro-1-methylpiperidin-4-yl]amino}-3-[(trifluoromethyl)sulfanyl]indolizin-2-yl)-1,2,4-oxadiazol-5-yl]methyl}amino)-N-methylpyridine-3-carboxamide], the Kd in experiment [1] was less than 10 nM. The IC50 (in the experiment on NUGC3 cells (p53 Y220C); in experiment [2]) was less than 750 nM each time. Besides, the AC50 at p53 Y220C was less than 750 nM.

`CN1CC[C@@H](Nc2cccn3c(SC(F)(F)F)c(-c4noc(CNC(=O)c5ccc(-c6ccn[nH]6)s5)n4)cc23)[C@@H](F)C1` [Example 56, N-{[3-(8-{[(3S,4R)-3-fluoro-1-methylpiperidin-4-yl]amino}-3-[(trifluoromethyl)sulfanyl]indolizin-2-yl)-1,2,4-oxadiazol-5-yl]methyl}-5-(2H-pyrazol-3-yl)thiophene-2-carboxamide] yielded a Kd in experiment [1] of 10 to 100 nM. Besides, the IC50 (in the experiment on NUGC3 cells (p53 Y220C); in experiment [2]) was less than 750 nM throughout. On p53 Y220C, the AC50 was 750 to 1500 nM.

Compound `CNC(=O)c1ccc(C(=O)NCc2nc(-c3cc4c(N[C@@H]5CCN(C)C[C@@H]5F)cccn4c3SC(F)(F)F)no2)cc1` [Example 57, N1—{[3-(8-{[(3S,4R)-3-fluoro-1-methylpiperidin-4-yl]amino}-3-[(trifluoromethyl)sulfanyl]indolizin-2-yl)-1,2,4-oxadiazol-5-yl]methyl}-N4-methylbenzene-1,4-dicarboxamide] registered a Kd in experiment [1] of less than 10 nM. The IC50 (in the experiment on NUGC3 cells (p53 Y220C); in experiment [2]) was less than 750 nM throughout. Further, the AC50 at p53 Y220C was less than 750 nM.

As to `CNC(=O)c1cccc(C(=O)NCc2nc(-c3cc4c(N[C@@H]5CCN(C)C[C@@H]5F)cccn4c3SC(F)(F)F)no2)c1` [Example 58, N1—{[3-(8-{[(3S,4R)-3-fluoro-1-methylpiperidin-4-yl]amino}-3-[(trifluoromethyl)sulfanyl]indolizin-2-yl)-1,2,4-oxadiazol-5-yl]methyl}-N3-methylbenzene-1,3-dicarboxamide], the Kd in experiment [1] was less than 10 nM. For the same compound, the IC50 (in the experiment on NUGC3 cells (p53 Y220C); in experiment [2]) was less than 750 nM each time. The AC50 on p53 Y220C was less than 750 nM.

On to `CC(=O)NCc1nc(-c2cc3c(N[C@@H]4CCN(C)C[C@@H]4F)cccn3c2SC(F)(F)F)no1` [Example 59, N-{[3-(8-{[(3S,4R)-3-fluoro-1-methylpiperidin-4-yl]amino}-3-[(trifluoromethyl)sulfanyl]indolizin-2-yl)-1,2,4-oxadiazol-5-yl]methyl}acetamide], for which, in experiment [1], the Kd was less than 10 nM. For the same compound, the IC50 with NUGC3 cells (p53 Y220C) was 750 to 1500 nM; in experiment [2], less than 750 nM. Further, the AC50 on p53 Y220C lay in the range of 750 to 1500 nM.

In experiment [1], `CC(C)C(=O)NCc1nc(-c2cc3c(N[C@@H]4CCN(C)C[C@@H]4F)cccn3c2SC(F)(F)F)no1` [Example 60, N-{[3-(8-{[(3S,4R)-3-fluoro-1-methylpiperidin-4-yl]amino}-3-[(trifluoromethyl)sulfanyl]indolizin-2-yl)-1,2,4-oxadiazol-5-yl]methyl}-2-methylpropanamide] gave a dissociation constant (Kd) of 10 to 100 nM. The 50% inhibitory concentration (IC50) (in the experiment on NUGC3 cells (p53 Y220C); in experiment [2]) was 1500 to 3000 nM throughout. The AC50 at p53 Y220C was in the range of 1500 to 3000 nM.

Take `COC(C)(C)C(=O)NCc1nc(-c2cc3c(N[C@@H]4CCN(C)C[C@@H]4F)cccn3c2SC(F)(F)F)no1` [Example 61, N-{[3-(8-{[(3S,4R)-3-fluoro-1-methylpiperidin-4-yl]amino}-3-[(trifluoromethyl)sulfanyl]indolizin-2-yl)-1,2,4-oxadiazol-5-yl]methyl}-2-methoxy-2-methylpropanamide]: the Kd in experiment [1] was 10 to 100 nM. The IC50 (with NUGC3 cells (p53 Y220C); in experiment [2]) was not below 3000 nM in each case. On p53 Y220C, the AC50 was not below 3000 nM.

In turn, `CN1CC[C@@H](Nc2cccn3c(SC(F)(F)F)c(-c4noc(CNC(=O)[C@H]5C[C@@H](O)C5)n4)cc23)[C@@H](F)C1` [Example 62, (1s,3s)-N-{[3-(8-{[(3S,4R)-3-fluoro-1-methylpiperidin-4-yl]amino}-3-[(trifluoromethyl)sulfanyl]indolizin-2-yl)-1,2,4-oxadiazol-5-yl]methyl}-3-hydroxycyclobutane-1-carboxamide] gave a Kd in experiment [1] of less than 10 nM. Further, the figures for the IC50 (with NUGC3 cells (p53 Y220C); in experiment [2]) were 1500 to 3000 nM and 750 to 1500 nM, respectively. Moreover, at p53 Y220C, the AC50 was in the range of 1500 to 3000 nM.
